Here are results for eight compounds from ChEMBL document CHEMBL1201862, “PubChem BioAssay data set” (2004).

The source made the active and inactive calls. Bounds are passed on as bounds.

The target of test [1] is T1, Cysteine protease ATG4B (Homo sapiens, UniProt Q9Y4P1).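 Also: Fluorescence-based dose-response confirmation assay measuring inhibition of ATG4B activity.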
T1 sequence (Q9Y4P1 whole entry): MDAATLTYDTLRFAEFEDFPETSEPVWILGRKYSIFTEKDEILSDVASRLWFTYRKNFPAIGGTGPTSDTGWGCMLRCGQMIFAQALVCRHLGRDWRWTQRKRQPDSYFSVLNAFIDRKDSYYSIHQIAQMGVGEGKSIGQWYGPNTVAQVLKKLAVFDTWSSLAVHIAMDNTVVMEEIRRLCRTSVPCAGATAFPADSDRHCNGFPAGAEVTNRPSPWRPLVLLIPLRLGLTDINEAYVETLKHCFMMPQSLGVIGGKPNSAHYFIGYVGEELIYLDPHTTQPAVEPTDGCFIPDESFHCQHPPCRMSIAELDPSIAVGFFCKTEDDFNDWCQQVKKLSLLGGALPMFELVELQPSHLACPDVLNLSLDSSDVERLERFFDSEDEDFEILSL
The format is functional.

Test [2] has as its target Phospholipase A2 (Homo sapiens, UniProt P04054). The format is functional.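 Also: confirmatory dose-response counterscreen on phospholipase A2, testing hits that came from an ultra-high-throughput screen for ATG4B inhibitors.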
Test [3] relates to Streptococcus sp. 'group A'. Description: growth inhibition of control SK(-) GAS strain, dose response, counter-screen for streptokinase expression inhibitor project, luminescence, kanamycin, BacTiterGlo, confirmation (AID 1900). The format is functional, organism-based.
In test [4] the target is T2, Streptokinase A (Streptococcus pyogenes serotype M1, UniProt P10520).
T2 sequence (P10520 whole entry): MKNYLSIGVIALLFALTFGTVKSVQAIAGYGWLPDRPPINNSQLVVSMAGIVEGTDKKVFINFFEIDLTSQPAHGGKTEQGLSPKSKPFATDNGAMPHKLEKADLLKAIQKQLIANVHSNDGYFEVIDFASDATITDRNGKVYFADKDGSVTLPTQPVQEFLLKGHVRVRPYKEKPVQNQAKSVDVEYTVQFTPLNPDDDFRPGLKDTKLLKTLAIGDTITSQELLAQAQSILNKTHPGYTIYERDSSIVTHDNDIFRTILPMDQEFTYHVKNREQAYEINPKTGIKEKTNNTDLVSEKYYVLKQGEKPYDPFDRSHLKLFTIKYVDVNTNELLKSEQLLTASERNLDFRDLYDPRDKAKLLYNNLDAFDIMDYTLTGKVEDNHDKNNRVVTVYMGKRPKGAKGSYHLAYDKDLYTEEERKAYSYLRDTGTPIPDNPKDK
Description: S. pyogenes streptokinase expression inhibitors, potency, dose response, plasminogen activation absorbance, OD405 (AID 1914).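 Also: secreted streptokinase activity via plasminogen activation per viability signal from cell pellet.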 In kind it is functional, Streptococcus pyogenes M1 GAS.

For test [5], the system named is Streptococcus. Briefly: Group A Streptococcus viability loss, dose response, counter-screen for streptokinase expression inhibitor project, luminescence, BacTiterGlo (AID 1915).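 Also: potency for reduction of bacterial viability or growth.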 The format is functional, organism-based. A general note: Counterscreens check selectivity or assay interference.
Test [6] deals with Candida albicans. Briefly: growth inhibition of resistant C. albicans, dose response, CaCi-8 strain, fluconazole, dry powder, set 4 (AID 488950). The format is functional, organism-based.
In test [7] the test system is Candida albicans. Description: fluconazole resistance reversal in C. albicans, dose response, CaCi-2 strain, Alamar Blue, dry powder, set 4 (AID 488943). The format is functional, organism-based. For orientation: Alamar Blue is a resazurin reagent that responds to reducing activity.
For test [8], the target named is T3, Sentrin-specific protease 8 (Homo sapiens, UniProt Q96LD8).
T3 sequence (Q96LD8 whole entry): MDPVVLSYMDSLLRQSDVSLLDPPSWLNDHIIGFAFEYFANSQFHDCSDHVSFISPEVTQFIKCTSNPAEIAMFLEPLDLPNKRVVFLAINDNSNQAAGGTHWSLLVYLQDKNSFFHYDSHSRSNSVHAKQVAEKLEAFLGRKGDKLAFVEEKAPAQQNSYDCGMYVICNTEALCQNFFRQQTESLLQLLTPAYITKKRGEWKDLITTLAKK
Description: SENP8 protease inhibitors, SAR follow-up, biochemical, luminescence (AID 504501). In kind it is functional.

For test [9], the target named is T4, Caspase-3 (Homo sapiens, UniProt P42574).
T4 sequence (P42574 whole entry): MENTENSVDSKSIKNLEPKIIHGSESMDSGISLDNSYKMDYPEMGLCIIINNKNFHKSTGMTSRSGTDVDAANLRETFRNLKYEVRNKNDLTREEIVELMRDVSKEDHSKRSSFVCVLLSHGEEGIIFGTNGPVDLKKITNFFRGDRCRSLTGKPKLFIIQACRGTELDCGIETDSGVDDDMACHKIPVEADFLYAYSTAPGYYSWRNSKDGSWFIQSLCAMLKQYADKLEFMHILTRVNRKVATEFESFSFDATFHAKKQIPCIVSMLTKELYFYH
Description: SAR Analysis of small molecule inhibitors of Sentrin-specific proteases (SENPs) using a Caspase-3 Selectivity assay. [Related pubchem assays (depositor defined):AID2540, AID2599, AID434973, AID489001]. In kind it is functional.

Test [10] deals with T5, Sentrin-specific protease 6 (Homo sapiens, UniProt Q9GZR1).
T5 sequence (Q9GZR1 whole entry): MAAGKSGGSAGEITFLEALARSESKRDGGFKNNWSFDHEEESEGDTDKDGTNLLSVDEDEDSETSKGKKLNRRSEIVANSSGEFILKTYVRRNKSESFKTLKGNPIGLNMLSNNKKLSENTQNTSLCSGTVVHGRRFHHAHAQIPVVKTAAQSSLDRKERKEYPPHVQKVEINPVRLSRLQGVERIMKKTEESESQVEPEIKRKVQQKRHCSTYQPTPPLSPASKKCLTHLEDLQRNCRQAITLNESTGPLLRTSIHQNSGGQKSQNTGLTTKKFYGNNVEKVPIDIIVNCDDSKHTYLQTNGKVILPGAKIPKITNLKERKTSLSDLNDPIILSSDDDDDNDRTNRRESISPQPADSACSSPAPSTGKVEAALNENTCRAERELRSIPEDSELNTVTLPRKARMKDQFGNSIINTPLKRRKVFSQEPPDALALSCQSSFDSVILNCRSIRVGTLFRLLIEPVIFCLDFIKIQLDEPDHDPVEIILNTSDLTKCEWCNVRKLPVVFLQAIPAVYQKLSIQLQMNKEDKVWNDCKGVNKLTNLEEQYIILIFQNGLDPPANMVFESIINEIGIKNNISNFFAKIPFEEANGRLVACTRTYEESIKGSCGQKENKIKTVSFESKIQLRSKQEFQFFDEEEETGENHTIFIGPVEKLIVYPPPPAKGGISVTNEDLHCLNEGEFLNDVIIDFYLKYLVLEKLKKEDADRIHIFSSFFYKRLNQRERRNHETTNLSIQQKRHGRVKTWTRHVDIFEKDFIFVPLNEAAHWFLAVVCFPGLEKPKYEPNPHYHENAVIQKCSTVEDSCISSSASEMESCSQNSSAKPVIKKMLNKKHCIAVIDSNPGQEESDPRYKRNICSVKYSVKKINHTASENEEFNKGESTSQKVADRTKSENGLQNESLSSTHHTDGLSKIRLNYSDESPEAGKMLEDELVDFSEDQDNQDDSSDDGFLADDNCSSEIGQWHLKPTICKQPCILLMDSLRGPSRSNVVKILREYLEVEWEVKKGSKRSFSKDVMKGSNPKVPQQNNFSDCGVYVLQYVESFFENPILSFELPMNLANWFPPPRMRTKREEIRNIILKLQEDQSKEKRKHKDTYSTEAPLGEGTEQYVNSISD
Briefly: SAR Analysis of small molecule inhibitors of Sentrin-specific protease 6 (SENP6) using a Luminescent assay. [Related pubchem assays (depositor defined):AID2582, AID2599]. The format is functional.

Test [11] has as its target T6, Sentrin-specific protease 7 (Homo sapiens, UniProt Q9BQF6).
T6 sequence (Q9BQF6 whole entry): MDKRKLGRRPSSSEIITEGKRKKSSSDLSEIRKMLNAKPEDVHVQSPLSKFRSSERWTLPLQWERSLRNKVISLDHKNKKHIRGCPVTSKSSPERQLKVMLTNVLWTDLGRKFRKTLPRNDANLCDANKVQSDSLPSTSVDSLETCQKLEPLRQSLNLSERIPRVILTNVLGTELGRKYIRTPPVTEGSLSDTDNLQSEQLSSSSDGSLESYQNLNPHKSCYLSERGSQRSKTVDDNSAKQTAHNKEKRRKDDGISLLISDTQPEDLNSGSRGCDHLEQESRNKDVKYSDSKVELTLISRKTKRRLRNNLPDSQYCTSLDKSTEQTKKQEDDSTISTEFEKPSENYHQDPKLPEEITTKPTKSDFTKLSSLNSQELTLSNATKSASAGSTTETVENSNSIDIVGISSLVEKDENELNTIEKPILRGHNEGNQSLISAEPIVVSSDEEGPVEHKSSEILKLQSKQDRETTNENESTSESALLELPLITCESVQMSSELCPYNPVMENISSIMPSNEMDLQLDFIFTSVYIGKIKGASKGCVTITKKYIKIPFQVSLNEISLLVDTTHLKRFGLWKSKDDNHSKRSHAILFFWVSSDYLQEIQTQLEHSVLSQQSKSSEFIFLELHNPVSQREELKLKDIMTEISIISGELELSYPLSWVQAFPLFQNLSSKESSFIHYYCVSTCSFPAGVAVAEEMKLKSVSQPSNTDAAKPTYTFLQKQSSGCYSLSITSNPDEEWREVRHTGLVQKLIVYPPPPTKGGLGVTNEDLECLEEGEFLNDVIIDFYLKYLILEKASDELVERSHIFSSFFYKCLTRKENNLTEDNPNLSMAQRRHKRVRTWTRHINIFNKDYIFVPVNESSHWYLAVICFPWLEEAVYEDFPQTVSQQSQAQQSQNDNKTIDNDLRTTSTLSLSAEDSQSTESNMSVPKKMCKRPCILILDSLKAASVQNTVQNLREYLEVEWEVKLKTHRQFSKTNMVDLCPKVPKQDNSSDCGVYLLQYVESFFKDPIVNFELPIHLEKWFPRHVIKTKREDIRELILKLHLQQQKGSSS
Description: SENP7 protease inhibitors, SAR follow-up, biochemical, luminescence (AID 504497). In kind it is functional.

The target in test [12] is T7, Fatty acid synthase (Homo sapiens, UniProt P49327). Briefly: FAS thioesterase domain inhibitors, dose response, biochemical, endpoint fluorescence intensity, uHTS hits (AID 624327).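 Also: fluorescence from hydrolysis of an O-methyl fluorescein acyl ester substrate by the enzyme.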 The format is functional.
Test [13] deals with T7, Fatty acid synthase. Description: FAS thioesterase domain inhibitors, dose response, biochemical, kinetic fluorescence intensity (AID 624326).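 Also: rate of fluorescence rise from hydrolysis of a fluorogenic O-methyl fluorescein ester substrate.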 The format is functional.
The target of test [14] is T8, Calpain-2 catalytic subunit (Sus scrofa, UniProt P43367).
T8 sequence (P43367 whole entry): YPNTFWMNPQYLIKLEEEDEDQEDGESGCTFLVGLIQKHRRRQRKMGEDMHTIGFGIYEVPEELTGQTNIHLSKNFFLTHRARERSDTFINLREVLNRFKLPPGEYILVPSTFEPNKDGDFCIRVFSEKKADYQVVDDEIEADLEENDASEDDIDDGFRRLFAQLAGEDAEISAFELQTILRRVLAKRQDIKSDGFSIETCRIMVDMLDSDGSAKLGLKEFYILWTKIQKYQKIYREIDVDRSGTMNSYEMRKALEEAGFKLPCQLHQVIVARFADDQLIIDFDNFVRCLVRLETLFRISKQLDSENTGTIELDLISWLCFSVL
Briefly: pig calpain II inhibitor potency, dose response, biochemical, fluorogenic peptide substrate (AID 1420). The format is functional.

Test [15] has as its target Heat shock protein HSP 90-alpha (Homo sapiens, UniProt P07900). The format is functional, organism-based.
Test [16] concerns Vero. Description: cells. In kind it is functional. Particulars: Chlorocebus sabaeus.

Sequence of Phospholipase A2 (P04054 whole entry): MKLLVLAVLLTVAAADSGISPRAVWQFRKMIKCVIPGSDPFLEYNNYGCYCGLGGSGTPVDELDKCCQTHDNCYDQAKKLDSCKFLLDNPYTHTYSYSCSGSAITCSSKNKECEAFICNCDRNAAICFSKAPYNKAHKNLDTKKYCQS
T7 sequence (P49327 whole entry, the tested form may be a part): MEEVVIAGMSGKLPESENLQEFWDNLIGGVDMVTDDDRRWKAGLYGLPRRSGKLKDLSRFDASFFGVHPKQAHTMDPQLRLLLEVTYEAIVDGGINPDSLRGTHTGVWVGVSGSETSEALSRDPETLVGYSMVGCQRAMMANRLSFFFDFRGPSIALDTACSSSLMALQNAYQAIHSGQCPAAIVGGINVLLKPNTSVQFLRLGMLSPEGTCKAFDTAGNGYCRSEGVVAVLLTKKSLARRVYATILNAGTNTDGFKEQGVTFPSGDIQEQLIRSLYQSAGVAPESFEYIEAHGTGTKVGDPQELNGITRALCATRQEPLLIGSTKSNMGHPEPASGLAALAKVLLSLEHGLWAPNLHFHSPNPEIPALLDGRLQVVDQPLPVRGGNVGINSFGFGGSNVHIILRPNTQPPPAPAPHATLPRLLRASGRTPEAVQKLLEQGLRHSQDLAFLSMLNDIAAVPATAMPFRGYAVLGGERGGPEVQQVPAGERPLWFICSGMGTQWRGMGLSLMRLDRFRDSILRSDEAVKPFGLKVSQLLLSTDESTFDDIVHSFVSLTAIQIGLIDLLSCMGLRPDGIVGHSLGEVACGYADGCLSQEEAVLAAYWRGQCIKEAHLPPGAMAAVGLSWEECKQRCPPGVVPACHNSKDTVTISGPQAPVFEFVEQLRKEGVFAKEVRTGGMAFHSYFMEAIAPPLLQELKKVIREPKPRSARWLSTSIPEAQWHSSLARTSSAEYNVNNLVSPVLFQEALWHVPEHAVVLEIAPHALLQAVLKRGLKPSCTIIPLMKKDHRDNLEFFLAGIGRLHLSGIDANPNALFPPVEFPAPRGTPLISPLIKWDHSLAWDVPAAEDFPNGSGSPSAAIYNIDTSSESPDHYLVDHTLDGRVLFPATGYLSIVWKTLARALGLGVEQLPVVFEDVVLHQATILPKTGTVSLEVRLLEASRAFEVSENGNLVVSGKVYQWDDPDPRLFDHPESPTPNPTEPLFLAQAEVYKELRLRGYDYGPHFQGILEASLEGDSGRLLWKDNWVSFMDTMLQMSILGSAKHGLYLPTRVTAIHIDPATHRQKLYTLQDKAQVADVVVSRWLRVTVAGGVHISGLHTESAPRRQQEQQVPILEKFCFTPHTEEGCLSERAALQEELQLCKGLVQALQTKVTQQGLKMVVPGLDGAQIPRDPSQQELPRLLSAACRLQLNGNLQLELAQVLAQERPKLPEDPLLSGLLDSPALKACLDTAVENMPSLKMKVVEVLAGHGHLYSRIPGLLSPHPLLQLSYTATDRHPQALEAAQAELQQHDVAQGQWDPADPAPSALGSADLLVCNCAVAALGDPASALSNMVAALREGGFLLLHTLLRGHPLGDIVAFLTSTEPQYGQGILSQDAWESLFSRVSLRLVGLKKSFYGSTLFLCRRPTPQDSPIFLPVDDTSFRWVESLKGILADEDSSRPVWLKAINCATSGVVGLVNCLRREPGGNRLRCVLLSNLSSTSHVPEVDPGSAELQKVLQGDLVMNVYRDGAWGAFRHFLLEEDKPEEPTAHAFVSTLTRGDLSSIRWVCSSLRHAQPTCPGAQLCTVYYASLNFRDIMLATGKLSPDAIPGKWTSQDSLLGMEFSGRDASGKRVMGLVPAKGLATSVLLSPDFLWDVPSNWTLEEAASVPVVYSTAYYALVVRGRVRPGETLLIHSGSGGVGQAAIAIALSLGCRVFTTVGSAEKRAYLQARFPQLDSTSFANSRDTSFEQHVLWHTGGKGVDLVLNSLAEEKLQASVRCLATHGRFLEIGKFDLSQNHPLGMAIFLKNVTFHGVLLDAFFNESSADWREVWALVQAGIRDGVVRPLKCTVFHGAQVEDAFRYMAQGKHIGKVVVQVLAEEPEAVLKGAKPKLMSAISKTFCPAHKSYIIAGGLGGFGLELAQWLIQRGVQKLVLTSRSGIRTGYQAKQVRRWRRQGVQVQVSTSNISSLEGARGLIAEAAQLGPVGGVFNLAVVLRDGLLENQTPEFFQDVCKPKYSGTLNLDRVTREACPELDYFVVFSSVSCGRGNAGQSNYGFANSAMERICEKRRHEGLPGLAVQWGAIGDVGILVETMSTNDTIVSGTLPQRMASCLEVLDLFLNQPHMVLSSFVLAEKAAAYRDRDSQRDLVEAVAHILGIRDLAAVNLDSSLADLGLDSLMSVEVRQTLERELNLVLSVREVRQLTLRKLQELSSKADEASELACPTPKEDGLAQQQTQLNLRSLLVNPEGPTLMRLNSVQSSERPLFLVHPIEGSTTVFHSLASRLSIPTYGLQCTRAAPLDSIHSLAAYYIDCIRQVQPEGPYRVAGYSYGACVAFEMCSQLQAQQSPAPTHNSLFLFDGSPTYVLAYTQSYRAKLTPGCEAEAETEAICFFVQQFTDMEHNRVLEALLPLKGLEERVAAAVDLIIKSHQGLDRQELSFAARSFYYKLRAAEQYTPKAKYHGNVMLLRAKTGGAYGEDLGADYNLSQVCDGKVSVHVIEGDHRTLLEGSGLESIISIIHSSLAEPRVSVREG

The term IC50 denotes the concentration that gives 50% inhibition. Turning to `O=C(O/N=C1/CCSc2ccccc21)c1ccccc1`, the values for the IC50 in [1] and in test [2] were 16 µM (active) and 13.2 µM (active), respectively.
By EC50 is commonly meant the concentration that produces a half-maximal response. Regarding `O=C1NC(=O)/C(=C\c2ccccc2OCc2ccccc2)S1`, the EC50 in [3] is 16.4 µM (active); in test [4], 37.6 µM (active); in [5] it was 88.8 µM (active). The IC50 in [1] was 10.7 µM (active); in [2], 8.29 µM (active).
As a reminder, the AC50 is the concentration at which the activity in the assay is half-maximal. On to `COc1ccc(OC)c2c(C)cc(N3CCN(C(=O)c4ccc(Cl)cc4)CC3)nc12`, for which the AC50 in [6] is 8.32 µM (active); in test [7] it was 9.36 µM (active).
`COc1cc(C(=O)Nc2ccccc2Cl)ccc1OCc1ccc(Cl)cc1`: the IC50 in test [8], in test [9], in [10] and in [11] was > 99 µM (inactive) in each case.
For `O=C(Nc1ccccc1Cl)c1ccc(OCc2ccccc2)cc1`, the IC50 in test [8], in test [9], in test [10] and in [11] was > 99 µM (inactive) each time.
On to `O=C(O)COc1ccccc1C=NNc1ccc([N+](=O)[O-])cc1S(=O)(=O)Nc1ccc(Cl)cc1`, for which the IC50 in [1] is 10.6 µM (active); in test [2], 12.2 µM (active); in test [12], 10.8 µM (active); in test [13], 12.5 µM (active).
By CC50 is commonly meant the concentration giving 50% cytotoxicity. `CCCc1ccc(Oc2c[nH]nc2-c2ccc(O)c(C)c2O)cc1`: the EC50 is > 150 µM (not active) in test [4] and 8.83 µM (active) in [5]. In test [14], the IC50 was 38.2 µM (not active). The AC50 in [15] was 3.08 µM (active). The CC50 in test [16] is > 25 µM (active).
For the compound `COC(=O)c1ccc(NC(=O)C(=O)c2c[nH]c3ccccc23)cc1`, the IC50 in test [8], in test [9], in test [10] and in test [11] was > 99 µM (inactive) in each case.
